Assay results taken from patent publication US20170296629A1, “INHIBITOR OF EXTRACELLULAR TRAP FORMATION IN LEUKOCYTE” (KEIO UNIVERSITY, priority 2014, published 2017).
Ends that are not written are not given here.

Test system: Healthy Individual's Peripheral Blood Neutrophil
Experiment: Inhibition of NET formation in neutrophils pretreated with lactoferrin-derived peptide fragment; DNA concentration in culture supernatant (Picogreen)
Assay type: cell-based
Details: human neutrophils, pretreatment with peptide
Method: Effect of Inhibiting NET Formation Stimulation of Healthy Individual's Peripheral Blood Neutrophil by Pretreatment with Lactoferrin-derived Peptide Fragment
For each round of experiment, 15 ml to 20 ml of peripheral blood was collected from a healthy individual by using an EDTA-containing syringe (with a needle of 18 to 22 G). After collecting the blood, in a 15 ml conical tube charged with 3 ml of Mono-Poly Resolving Medium (Cat No. DSBN100, DS Pharma Biochemical Co., Ltd.), 3.5 ml of the whole blood was gently layered over a lower layer of Mono-Poly Resolving Medium. The resultant 15 ml conical tube was centrifuged with a swing centrifuge at room temperature (15 to 30° C.) at 400×g for 20 minutes, and the conical tube was then gently taken out. An uppermost brown plasma layer and a lymphocyte/monocyte layer thereunder were removed with an aspirator or the like. In addition, a transparent layer under the lymphocyte/monocyte layer was removed as much as possible. A pale pink layer under the transparent layer was taken out with a Pasteur pipette, and transferred, for washing neutrophils, to a test tube charged with phosphate buffered saline (PBS(−); 137 mM of sodium chloride, 2.7 mM of potassium chloride, 8.1 mM of disodium hydrogen phosphate dodecahydrate, and 1.47 mM of potassium dihydrogen phosphate). The test tube thus holding the neutrophils was centrifuged at room temperature (15 to 30° C.) at 200×g for 10 minutes. The test tube was taken out, and a supernatant was discarded. To the neutrophils held in the test tube, sterile water at 4° C. was added, and the resultant was allowed to stand still on ice for 30 seconds for hemolyzing erythrocytes mixed therein. After the hemolysis, 45 ml of PBS(−) was added thereto, and the resultant was centrifuged at 200×g for 10 minutes. […]
A culture supernatant was collected, centrifuged at 200×g for 10 minutes, and the thus obtained supernatant was transferred to a fresh microcentrifuge tube. The amount of DNA was measured by using Picogreen dsDNA assay reagent (P11496 Invitrogen) in accordance with the accompanying protocol.

## SEQ ID NO: 7: Human lactoferricin, basic peptide prepared by PH Japan (GRRRRSVQWCAVSQPEATKCFQWQRNMRKVRGPPVSCIKRDSPIQCIQA; listed as Homo sapiens)
  inhibition of the NET formation, dependence on amount (FIG. 3): inhibited the NET formation in a volume-dependent manner

## SEQ ID NO: 6: Bovine lactoferricin; basic peptide obtained by pepsin hydrolysis of bovine lactoferrin, also prepared by PH Japan (MFKCRRWQWRMKKLGAPSITCVRRAF; ends and bridges not checked; cysteine pairing not given here; listed as Bos taurus)
FIG. 2
  inhibition of the NET (FIG. 2): found to have the inhibiting effect
  inhibition of the NET formation, dependence on amount (FIG. 3): inhibited the NET formation in a volume-dependent manner
